In patent US11440931B2, “Crocins compounds and uses thereof” (Jinan University, priority 2016, dated 2022):

Legend:
[1] = system: SH-SY5Y nerve cells; assay: Hydrogen peroxide-damaged SH-SY5Y cell model (MTT); type: cell-based; details: summary in words
Method: (§1) 2.1 Method for Culturing SH-SY5Y Nerve Cells
(§2) The SH-SY5Y nerve cells were cultured in a DMEM culture medium (containing 5% of fetal calf serum in volume fraction) in an incubator containing 5% CO2 at 37° C., while subculturing every 3 to 4 days. Cells in a logarithmic phase were selected for experiments.
2.2 Method for Screening with Hydrogen Peroxide-Damaged Models
SH-SY5Y cells were inoculated at a concentration of 5×10^3 in a 96-well plate, and then cultured for 24 h, and 100 μL of a liquid culture medium containing H2O2 and a crocin-like compound was added to the 96-well plate, such that a final concentration of H2O2 was 400 μM and a final concentration of the crocin-like compound was 10 μM, 1 μM, 0.1 μM, with each concentration in triplicate, followed by culturing for 24 h. After 24 h, a supernatant was sucked out and discarded, and to each well was added 100 μL of MTT (0.5 mg/mL), followed by incubation for 4 h. A supernatant was sucked out and discarded, to each well was added 150 μL of DMSO, followed by shaking for 10 min, and a wavelength of 570 nm was selected to measure a value of absorbancy on a microplate reader^[12]. (Effective rate %=(ODcrocin-like compound−ODmodel)/(ODcontrol−ODmodel)*100).

[2] = system: SH-SY5Y nerve cells; assay: L-glutamic acid-damaged SH-SY5Y cell model (MTT); type: cell-based; details: summary in words
Method: as §1, §2
2.3 Method for Screening with L-Glutamic Acid-Damaged Models
SH-SY5Y cells were inoculated at a concentration of 5×10^3 in a 96-well plate, and then cultured for 24 h, and 100 μL of a liquid culture medium containing L-glutamic acid and a crocin-like compound was added to a 96-well plate, such that a final concentration of L-glutamic acid was 160 mM and a final medication concentration of the crocin-like compound was 10 μM, 1 μM, 0.1 μM, with each concentration in triplicate, followed by culturing for 24 h. After 24 h, a supernatant was sucked out and discarded, to each well was added 100 μL of MTT (0.5 mg/mL), followed by incubation for 4 h. A supernatant was sucked out and discarded, to each well was added 150 μL of DMSO, followed by shaking for 10 min, and a wavelength of 570 nm was selected to measure a value of absorbancy on a microplate reader^[13]. (Effective rate %=(ODcrocin-like compound−ODmodel)/(ODcontrol−ODmodel)*100).

[3] = system: PC-12 cells; details: antioxidant effect (GSH increase, inhibition of peroxidized lipid, SOD retained); cited from earlier work

In the case of CC(/C=C/C=C(\C)C(=O)O)=C\C=C\C=C(C)\C=C\C=C(/C)C(=O)O[C@@H]1OC(CO[C@@H]2OC[C@@H](O)C(O)C2O)[C@@H](O)C(O)C1O (stereo partly shown) [GJ-10, neocrocin J], the “protection effect on SY5Y cell damage models induced by H2O2” value (from here on “protection effect … by H2O2”) [1] is reported as “more excellent protection effects” and the “protection effect on SY5Y cell damage models induced by L-glutamic acid” value (from here on “protection effect … by L-glutamic acid”) [2] is reported as “more excellent protection effects”.
With COc1cc(/C=C/C(=O)OCC2O[C@@H](OCC3O[C@@H](OC(=O)/C(C)=C/C=C/C(C)=C/C=C/C=C(C)/C=C/C=C(\C)C(=O)O[C@@H]4OC(CO[C@@H]5OC(CO)[C@@H](O)C(O)C5O)[C@@H](O)C(O)C4O)C(O)C(O)[C@@H]3O)C(O)C(O)[C@@H]2O)cc(OC)c1O (stereo partly shown) [GJ-6, neocrocin G] the “protection effect … by H2O2” value [1] was “more excellent protection effects” and the “protection effect … by L-glutamic acid” value [2] was “more excellent protection effects”.
For COc1cc(/C=C/C(=O)OCC2O[C@@H](OCC3O[C@@H](OC(=O)/C(C)=C/C=C/C(C)=C/C=C/C=C(C)/C=C/C=C(\C)C(=O)O)C(O)C(O)[C@@H]3O)C(O)C(O)[C@@H]2O)cc(OC)c1O (stereo partly shown) [GJ-7, neocrocin F], the “protection effect … by L-glutamic acid” value [2] was “more excellent protection effects”.
In the case of CCOC(=O)/C(C)=C/C=C/C(C)=C/C=C/C=C(C)/C=C/C=C(\C)C(=O)O[C@@H]1O[C@H](CO[C@@H]2O[C@H](CO)[C@@H](O)[C@H](O)[C@H]2O)[C@@H](O)[C@H](O)[C@H]1O [GJ-8, neocrocin H], the “protection effect … by H2O2” value [1] is reported as “more excellent protection effects” and the “protection effect … by L-glutamic acid” value [2] is reported as “more excellent protection effects”.
With C\C(C=O)=C/C=C/C(C)=C/C=C/C=C(C)/C=C/C=C(\C)C(=O)O[C@@H]1OC(CO[C@@H]2OC(CO)[C@@H](O)C(O)C2O)[C@@H](O)C(O)C1O (stereo partly shown) [GJ-9, neocrocin I] the “protection effect … by L-glutamic acid” value [2] was “more excellent protection effects”.
For CC(/C=C/C=C(\C)C(=O)O[C@@H]1O[C@H](CO[C@@H]2O[C@H](CO)[C@@H](O)[C@H](O)[C@H]2O)[C@@H](O)[C@H](O)[C@H]1O)=C\C=C\C=C(C)\C=C\C=C(/C)C(=O)O[C@@H]1O[C@H](CO[C@@H]2O[C@H](CO)[C@@H](O)[C@H](O)[C@H]2O)[C@@H](O)[C@H](O)[C@H]1O [crocin-1, crocin digentiobioside], the “protective effect on PC-12 cells” value [3] is given as “protective effect on PC-12 cells”.
In the case of CC(/C=C/C=C(\C)C(=O)O[C@@H]1OC(CO[C@@H]2OC(CO)[C@@H](O)C(O)C2O)[C@@H](O)C(O)C1O)=C\C=C\C=C(C)\C=C\C=C(/C)C(=O)O[C@@H]1[C@@H](O)C[C@](O)(C(=O)O)C[C@H]1OC(=O)/C=C/c1ccc(O)c(O)c1 (stereo in doubt) [GJ-1, neocrocin B], the “protection effect … by L-glutamic acid” value [2] is reported as “more excellent protection effects”.
